Reference: ChEMBL document CHEMBL1127973, “A comparative molecular field analysis derived model of the binding of taxol analogues to microtubules” (Bioorg Med Chem Lett, 1994)

Tests used:
[1] = molecular target: T1, Tubulin (Homo sapiens) (UniProt P68371+Q9H4B7+P0DPH7+P68366+Q13509+Q71U36+P04350+Q3ZCM7+P07437+P68363+Q9BQE3+Q6PEY2+Q13885+Q9BVA1+Q9BUF5); assay: Binding affinity to microtubules, activity expressed as log 1/ID50 of compound/ID50 of paclitaxel; type: protein-complex assay
[2] = molecular target: T1, Tubulin (Homo sapiens); assay: Binding affinity to microtubules, activity expressed as ID50 of compound/ID50 of paclitaxel; type: protein-complex assay

SMILES | Log 1/ratio [1] | ID50 ratio [2]
CC(=O)O[C@@]12CO[C@@H]1C[C@H](OC(=O)[C@H](O)[C@@H](O)[C@H](O)CO)[C@@]1(C)C(=O)[C@H](O)C3=C(C)[C@@H](OC(=O)[C@H](O)[C@@H](NC(=O)c4ccccc4)c4ccccc4)C[C@@](O)([C@@H](OC(=O)c4ccccc4)[C@H]21)C3(C)C | 0.222 | 0.6
CC(=O)O[C@@]12CO[C@@H]1C[C@H](O)[C@@]1(C)C(=O)[C@H](O)C3=C(C)[C@@H](OC(=O)[C@@H](O)[C@@H](N)c4ccccc4)C[C@@](O)([C@@H](OC(=O)c4ccccc4)[C@H]21)C3(C)C | -1.48 | 30
CC(=O)O[C@@]12CO[C@@H]1C[C@H](O)[C@@]1(C)C(=O)[C@H](O)C3=C(C)[C@@H](OC(=O)[C@H](O)[C@H](NC(=O)c4ccccc4)c4ccccc4)C[C@@](O)([C@@H](OC(=O)c4ccccc4)[C@H]21)C3(C)C | -0.114 | 1.3
CC(=O)O[C@@]12CO[C@@H]1C[C@H](O)[C@@]1(C)C(=O)[C@H](O)C3=C(C)[C@@H](OC(=O)[C@H](NC(=O)OC(C)(C)C)[C@@H](O)c4ccccc4)C[C@@](O)([C@@H](OC(=O)c4ccccc4)[C@H]21)C3(C)C | -1 | 10
CC(=O)O[C@H]1C(=O)[C@@]2(C)[C@H]([C@H](OC(=O)c3ccccc3)[C@]3(O)C[C@H](OC(=O)[C@H](OC(C)=O)[C@@H](NC(=O)c4ccccc4)c4ccccc4)C(C)=C1C3(C)C)[C@]1(OC(C)=O)CO[C@@H]1C[C@@H]2O | -1.48 | 30
CC(=O)O[C@H]1C(=O)[C@@]2(C)[C@H]([C@H](OC(=O)c3ccccc3)[C@]3(O)C[C@H](OC(=O)[C@@H](NC(=O)OC(C)(C)C)[C@H](O)c4ccccc4)C(C)=C1C3(C)C)[C@]1(OC(C)=O)CO[C@@H]1C[C@@H]2O | -2.03 | 108
CC(=O)O[C@@]12CO[C@@H]1C[C@H](O)[C@@]1(C)C(=O)[C@H](O)C3=C(C)[C@@H](OC(=O)[C@H](O)[C@@H](NC(=O)c4ccccc4)c4ccccc4)C[C@@](O)([C@@H](OC(=O)c4ccccc4)[C@H]21)C3(C)C | -0.114 | 1.3
CC(=O)O[C@@]12CO[C@@H]1C[C@H](O)[C@@]1(C)C(=O)[C@H](O)C3=C(C)[C@@H](OC(=O)[C@H](O)[C@H](N)c4ccccc4)C[C@@](O)([C@@H](OC(=O)c4ccccc4)[C@H]21)C3(C)C | -1.48 | 30
CC(=O)O[C@H]1C[C@]2(C)[C@@H](O)C[C@H]3OC[C@@]3(OC(C)=O)[C@H]2[C@H](OC(=O)c2ccccc2)[C@@]2(O)C[C@H](OC(=O)[C@H](O)[C@@H](NC(=O)c3ccccc3)c3ccccc3)C(C)C1C2(C)C (some centres not stated) | -0.477 | 3
CC(=O)O[C@@]12CO[C@@H]1C[C@H](O)[C@@]1(C)C(=O)[C@H](O)C3=C(C)[C@@H](OC(=O)[C@@H](NC(=O)c4ccccc4)[C@H](O)c4ccccc4)C[C@@](O)([C@@H](OC(=O)c4ccccc4)[C@H]21)C3(C)C | -2.23 | 170
CC(=O)O[C@@]12CO[C@@H]1C[C@H](OC(=O)CN)[C@@]1(C)C(=O)[C@H](OC(=O)CN)C3=C(C)[C@@H](OC(=O)[C@H](O)[C@@H](NC(=O)OC(C)(C)C)c4ccccc4)C[C@@](O)([C@@H](OC(=O)c4ccccc4)[C@H]21)C3(C)C | -0.0792 | 1.2
CC(=O)O[C@@]12CO[C@@H]1C[C@H](O)[C@@]1(C)C(=O)[C@H](O)C3=C(C)[C@@H](OC(=O)[C@@H](O)[C@H](NC(=O)c4ccccc4)c4ccccc4)C[C@@](O)([C@@H](OC(=O)c4ccccc4)[C@H]21)C3(C)C | -0.602 | 4
CC(=O)O[C@@]12CO[C@@H]1C[C@H](O)[C@@]1(C)C(=O)[C@H](O)C3=C(C)[C@@H](OC(=O)[C@@H](O)[C@@H](NC(=O)c4ccccc4)c4ccccc4)C[C@@](O)([C@@H](OC(=O)c4ccccc4)[C@H]21)C3(C)C | -0.114 | 1.3
CC(=O)O[C@@]12CO[C@@H]1C[C@H](O)[C@@]1(C)C(=O)[C@H](O)C3=C(C)[C@@H](OC(=O)[C@@H](O)[C@H](NC(=O)OC(C)(C)C)c4ccccc4)C[C@@](O)([C@@H](OC(=O)c4ccccc4)[C@H]21)C3(C)C | -1.48 | 30
CC(=O)O[C@@H](C(=O)O[C@H]1C[C@@]2(O)[C@@H](OC(=O)c3ccccc3)[C@@H]3[C@]4(OC(C)=O)CO[C@@H]4C[C@H](O)[C@@]3(C)C(=O)[C@H](O)C(=C1C)C2(C)C)[C@@H](NC(=O)OC(C)(C)C)c1ccccc1 | -1.48 | 10
CC(=O)O[C@@]12CO[C@@H]1C[C@H](O)[C@@]1(C)C(=O)[C@H](O)C3=C(C)[C@@H](OC(=O)/C=C/c4ccccc4)C[C@@](O)([C@@H](OC(=O)c4ccccc4)[C@H]21)C3(C)C | -1.37 | 23
CC(=O)O[C@H]1C(=O)[C@@]2(C)[C@H]([C@H](OC(=O)c3ccccc3)[C@]3(O)C[C@H](OC(=O)[C@H](O)[C@@H](NC(=O)c4ccccc4)c4ccc(Cl)cc4)C(C)=C1C3(C)C)[C@]1(OC(C)=O)CO[C@@H]1C[C@@H]2O | -0.279 | 1.9
C/C=C/C(=O)O[C@H]1C[C@@]2(O)[C@@H](OC(=O)c3ccccc3)[C@@H]3[C@]4(OC(C)=O)CO[C@@H]4C[C@H](O)[C@@]3(C)C(=O)[C@H](OC(C)=O)C(=C1C)C2(C)C | -2 | 100

Results, then the compound that gave them:

Log 1/ratio [1] | ID50 ratio [2] | SMILES
-0.778 | 6 | CC(=O)O[C@H]1C(=O)[C@@]2(C)[C@H]([C@H](OC(=O)c3ccccc3)[C@]3(O)C[C@H](OC(=O)[C@H](O)[C@@H](NC(=O)c4ccc(C(F)(F)F)cc4)c4ccccc4)C(C)=C1C3(C)C)[C@]1(OC(C)=O)CO[C@@H]1C[C@@H]2O
-0.301 | 2 | CC(=O)O[C@H]1C(=O)[C@@]2(C)[C@H]([C@H](OC(=O)c3ccccc3)[C@]3(O)C[C@H](OC(=O)[C@H](O)[C@@H](NC(=O)c4cccc(Cl)c4)c4ccccc4)C(C)=C1C3(C)C)[C@]1(OC(C)=O)CO[C@@H]1C[C@@H]2O
-1 | 10 | CC(=O)O[C@H]1C(=O)[C@@]2(C)[C@H]([C@H](OC(=O)c3ccccc3)[C@]3(O)C[C@H](OC(=O)[C@H](NC(=O)c4ccccc4)[C@@H](O)c4ccccc4)C(C)=C1C3(C)C)[C@]1(OC(C)=O)CO[C@@H]1C[C@@H]2O
-1.64 | 44 | CC(=O)O[C@H]1C(=O)[C@@]2(C)[C@H]([C@H](OC(=O)c3ccccc3)[C@]3(O)C[C@H](OC(=O)[C@H](O)[C@@H](N)c4ccccc4)C(C)=C1C3(C)C)[C@]1(OC(C)=O)CO[C@@H]1C[C@@H]2O
0.0969 | 0.8 | CC(=O)O[C@H]1C(=O)[C@@]2(C)[C@H]([C@H](OC(=O)c3ccccc3)[C@]3(O)C[C@H](OC(=O)[C@H](O)[C@@H](NC(=O)c4ccccc4)c4ccccc4)C(C)=C1C3(C)C)[C@]1(OC(C)=O)CO[C@@H]1C[C@@H]2O (stereo in doubt; 14)
0 | 1 | CC(=O)O[C@H]1C(=O)[C@]2(C)[C@@H](OC(=O)[C@H](N)CCC(=O)O)C[C@H]3OC[C@@]3(OC(C)=O)[C@H]2[C@H](OC(=O)c2ccccc2)[C@]2(O)C[C@H](OC(=O)[C@H](O)[C@@H](NC(=O)c3ccccc3)c3ccccc3)C(C)=C1C2(C)C
0.222 | 0.6 | COc1ccc(C(=O)N[C@@H](c2ccccc2)[C@@H](O)C(=O)O[C@H]2C[C@@]3(O)[C@@H](OC(=O)c4ccccc4)[C@@H]4[C@]5(OC(C)=O)CO[C@@H]5C[C@H](O)[C@@]4(C)C(=O)[C@H](OC(C)=O)C(=C2C)C3(C)C)cc1
-1 | 10 | CC(=O)O[C@H]1C(=O)[C@@]2(C)[C@H]([C@H](OC(=O)c3ccccc3)[C@]3(O)C[C@H](OC(=O)[C@H](NC(=O)OC(C)(C)C)[C@@H](O)c4ccccc4)C(C)=C1C3(C)C)[C@]1(OC(C)=O)CO[C@@H]1C[C@@H]2O
-0.398 | 0.4 | CC(=O)O[C@H]1C(=O)[C@]2(C)[C@@H](OC(=O)[C@H](O)[C@@H](O)[C@H](O)CO)C[C@H]3OC[C@@]3(OC(C)=O)[C@H]2[C@H](OC(=O)c2ccccc2)[C@]2(O)C[C@H](OC(=O)[C@H](O)[C@@H](NC(=O)c3ccccc3)c3ccccc3)C(C)=C1C2(C)C
-0.38 | 2.4 | CC(=O)O[C@H]1C(=O)[C@@]2(C)[C@H]([C@H](OC(=O)c3ccccc3)[C@]3(O)C[C@H](OC(=O)[C@H](O)[C@@H](NC(=O)c4ccccc4)c4ccc(C)cc4)C(C)=C1C3(C)C)[C@]1(OC(C)=O)CO[C@@H]1C[C@@H]2O
0.155 | 0.7 | CC(=O)O[C@H]1C(=O)[C@@]2(C)[C@H]([C@H](OC(=O)c3ccccc3)[C@]3(O)C[C@H](OC(=O)[C@H](O)[C@@H](NC(=O)CC(C)(C)C)c4ccccc4)C(C)=C1C3(C)C)[C@]1(OC(C)=O)CO[C@@H]1C[C@@H]2O
-2.04 | 110 | CC(=O)O[C@H]1C(=O)[C@@]2(C)[C@H]([C@H](OC(=O)c3ccccc3)[C@]3(O)C[C@H](OC(=O)[C@@H](NC(=O)c4ccccc4)[C@H](O)c4ccccc4)C(C)=C1C3(C)C)[C@]1(OC(C)=O)CO[C@@H]1C[C@@H]2O
-1.48 | 30 | CC(=O)O[C@H]1C(=O)[C@@]2(C)[C@H]([C@H](OC(=O)c3ccccc3)[C@]3(O)C[C@H](OC(=O)[C@@H](O)[C@H](NC(=O)OC(C)(C)C)c4ccccc4)C(C)=C1C3(C)C)[C@]1(OC(C)=O)CO[C@@H]1C[C@@H]2O
